The text below walks through data of ChEMBL document CHEMBL1144158, “Synthesis and biological properties of 2-methylene-19-nor-25-dehydro-1alpha-hydroxyvitamin D(3)-26,23-lactones--weak agonists” (Bioorg Med Chem, 2008).

pEC50, pKi: −log10 of the molar value. Calls of active or inactive are those of the source. No cut-off for these calls is given here.

Assay [1] concerns the target T1, Vitamin D3 receptor (Rattus norvegicus) (UniProt P13053).
T1 sequence (whole entry): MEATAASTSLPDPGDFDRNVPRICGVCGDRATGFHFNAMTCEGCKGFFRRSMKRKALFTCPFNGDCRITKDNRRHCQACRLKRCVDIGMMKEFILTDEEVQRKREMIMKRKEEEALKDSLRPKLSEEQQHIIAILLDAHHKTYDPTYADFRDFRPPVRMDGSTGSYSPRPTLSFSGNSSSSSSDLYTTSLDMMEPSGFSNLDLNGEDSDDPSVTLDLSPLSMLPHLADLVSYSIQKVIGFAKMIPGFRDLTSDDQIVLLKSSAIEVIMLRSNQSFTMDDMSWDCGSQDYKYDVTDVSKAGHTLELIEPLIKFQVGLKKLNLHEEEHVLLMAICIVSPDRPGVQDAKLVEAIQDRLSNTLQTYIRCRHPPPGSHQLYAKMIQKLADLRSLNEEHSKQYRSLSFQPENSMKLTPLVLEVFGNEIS
Kind of assay: Antagonist activity at rat recombinant VDR expressed in rat ROS 17/2.8 cells transfected with 24-hydroxylase gene promoter assessed as 1-alpha,25-(OH)2D3-induced transcriptional activation at 0.001 uM to 0.1 uM after 16 hrs by luciferase reporter gene assay. The format is functional, cell-based. On the technique in general: In a reporter assay the amount or activity of a reporter protein is the signal.

The test system of assay [2] is Rattus norvegicus. Kind of assay: Effect on bone calcium mobilization in vitamin D-deficient Sprague-Dawley rat assessed as serum calcium level at 7800 pmol, ip administered 4 consecutive daily doses assessed after 24 hrs of last dose by spectrometry. In kind it is functional.
Assay [3] deals with Rattus norvegicus. Kind of assay: Effect on bone calcium mobilization in vitamin D-deficient Sprague-Dawley rat assessed as serum calcium level at 960 pmol, ip administered 4 consecutive daily doses assessed after 24 hrs of last dose by spectrometry. In kind it is functional.
For assay [4], the system named is Rattus norvegicus. The assay is described as follows: Effect on calcium transport in vitamin D-deficient Sprague-Dawley rat intestine assessed as ratio of serosal to mucosal calcium level at 7800 pmol, ip administered 4 consecutive daily doses assessed after 24 hrs of last dose by gut sac assay. In kind it is functional.
Assay [5] relates to Rattus norvegicus. Kind of assay: Effect on calcium transport in vitamin D-deficient Sprague-Dawley rat intestine assessed as ratio of serosal to mucosal calcium level at 320 pmol, ip administered 4 consecutive daily doses assessed after 24 hrs of last dose by gut sac assay. The format is functional.
Assay [6] concerns the target T2, Vitamin D3 receptor (Rattus norvegicus, UniProt P13053).
T2 sequence (P13053 whole entry): T1 sequence (whole entry)
Kind of assay: Activity at rat recombinant full length VDR expressed in rat ROS 17/2.8 cells transfected with 24-hydroxylase gene promoter assessed as transcriptional activation after 16 hrs by luciferase reporter gene assay.

Assay [7] relates to Rattus norvegicus. The assay is described as follows: Effect on bone calcium mobilization in vitamin D-deficient Sprague-Dawley rat assessed as serum calcium level at 320 pmol, ip administered 4 consecutive daily doses assessed after 24 hrs of last dose by spectrometry. In kind it is functional.
Assay [8] has as its system Rattus norvegicus. The assay is described as follows: Effect on calcium transport in vitamin D-deficient Sprague-Dawley rat intestine assessed as ratio of serosal to mucosal calcium level at 260 pmol, ip administered 4 consecutive daily doses assessed after 24 hrs of last dose by gut sac assay. The format is functional.
The subject of assay [9] is Rattus norvegicus. The assay is described as follows: Effect on calcium transport in vitamin D-deficient Sprague-Dawley rat intestine assessed as ratio of serosal to mucosal calcium level at 960 pmol, ip administered 4 consecutive daily doses assessed after 24 hrs of last dose by gut sac assay. In kind it is functional.
Another assay concerns HL-60. Kind of assay: Induction of differentiation of human HL-60 cells promyelocytes to monocytes after 4 days by NBT reduction assay. The format is functional, cell-based. Particulars: HL-60, 96 h.
Assay [10] concerns Rattus norvegicus. The assay is described as follows: Effect on calcium transport in vitamin D-deficient Sprague-Dawley rat intestine assessed as ratio of serosal to mucosal calcium level at 2340 pmol, ip administered 4 consecutive daily doses assessed after 24 hrs of last dose by gut sac assay. The format is functional.
The target of assay [11] is T2, Vitamin D3 receptor. Kind of assay: Displacement of [3H]1-alpha,25-(OH)2D3 from rat recombinant full length VDR. For orientation: Loss of bound radioactivity is the signal in a displacement assay; it reports binding, not function.
Assay [12] deals with Rattus norvegicus. Kind of assay: Effect on bone calcium mobilization in vitamin D-deficient Sprague-Dawley rat assessed as serum calcium level at 2340 pmol, ip administered 4 consecutive daily doses assessed after 24 hrs of last dose by spectrometry. In kind it is functional.
For assay [13], the system named is Rattus norvegicus. The assay is described as follows: Effect on bone calcium mobilization in vitamin D-deficient Sprague-Dawley rat assessed as serum calcium level at 260 pmol, ip administered 4 consecutive daily doses assessed after 24 hrs of last dose by spectrometry. The format is functional.

`C=C1[C@H](O)CC(=C/C=C2\CCC[C@]3(C)[C@@H]([C@H](C)/C=C/[C@@H](O)C4(C(=O)OCCCC)CC4)CC[C@@H]23)C[C@H]1O`: in assay [1], the result was Active.

Regarding `C=C1C[C@@H](C[C@@H](C)[C@H]2CC[C@H]3/C(=C/C=C4C[C@@H](O)C(=C)[C@H](O)C4)CCC[C@]23C)OC1=O`, the Ratio was determined as 4 in the assay with Rattus norvegicus [2]; 3.8 in the assay with Rattus norvegicus [3]; 11 in the assay on Rattus norvegicus [4]; 5.1 in the assay on Rattus norvegicus [5]; 3.7 with Rattus norvegicus [7]; 5.6 in the assay on Rattus norvegicus [8]. Besides, the Ratio in the assay on Rattus norvegicus [9] is reported as 5.9; in the assay with Rattus norvegicus [10] it was 9.6. Moreover, the values for the pEC50 at Vitamin D3 receptor [6] and in the assay with HL-60 were 7.00 and 8.70, respectively. In addition, on Vitamin D3 receptor [11], the pKi was 8.70.

Regarding `C=C1C[C@H](C[C@@H](C)[C@H]2CC[C@H]3/C(=C/C=C4C[C@@H](O)C(=C)[C@H](O)C4)CCC[C@]23C)OC1=O`, the Ratio in the assay with Rattus norvegicus [12] is given as 4.2; with Rattus norvegicus [8] it was 7.6; in the assay on Rattus norvegicus [13] it was 4.4; in the assay on Rattus norvegicus [10], 9.5. Also, the figures for the negative logarithm of the EC50 (pEC50) on Vitamin D3 receptor [6] and in the assay on HL-60 were 8.70 and 8.40, respectively. The negative logarithm of the Ki (pKi) at Vitamin D3 receptor [11] was 9.00.

A word on the pEC50: it is −log10 of the EC50, conventionally taken in molar units. A word on the pKi: it is the negative decadic logarithm of the Ki, by convention in mol/L.
